Measured values reported in article PMC7155171, “Probing the Open Global Health Chemical Diversity Library for Multistage-Active Starting Points for Next-Generation Antimalarials” (ACS Infectious Diseases, 2020).
Read-outs that look alike come from different tables or passages of the source.

Assays:
P. falciparum Dd2 = experiment: SYBR green I asexual blood stage proliferation assay (96 h); assay type: cell-based, Plasmodium falciparum; conditions: Plasmodium falciparum, DD2, 11-pt dose response, 96hr
[1] = tested on: P. falciparum Dd2 (PfLuc) line expressing firefly luciferase, asexual blood stage; experiment: microbe, parasite or virus in culture; assay type: cell-based, Plasmodium falciparum; conditions: Plasmodium falciparum
[2] = Sybr Green I, read-out: CDD P. falciparum Sybr Green I ABS 11-pt Reconfirmation Dose Response (96hr): IC50
[3] = Sybr Green I, read-out: CDD P. falciparum Sybr Green I ABS 11-pt Reconfirmation Dose Response (96hr): Maximum inhibition (%)
[4] = DD2, read-out: CDD P. falciparum Luciferase ABS 11-pt Reconfirmation Dose Response (48hr): IC50 (μM), 11-pt dose response, 48hr
[5] = DD2, 8-pt dose response, 96hr, read-out: CDD P. falciparum Luciferase ABS 8-pt Reconfirmation Dose Response (96hr): IC50
[6] = DD2, 8-pt dose response, 96hr, read-out: CDD P. falciparum Luciferase ABS 8-pt Reconfirmation Dose Response (96hr): Maximum inhibition (%)
[7] = DD2, 11-pt dose response, 48hr, read-out: CDD P. falciparum Luciferase ABS 11-pt Reconfirmation Dose Response (48hr): Maximum inhibition (%)
[8] = DD2, 11-pt dose response, 96hr, read-out: CDD P. falciparum Luciferase ABS 11-pt Reconfirmation Dose Response (96hr): IC50
[9] = DD2, 11-pt dose response, 96hr, read-out: CDD P. falciparum Luciferase ABS 11-pt Reconfirmation Dose Response (96hr): Maximum inhibition (%)
[10] = read-out: P. falciparum Sybr Green I ABS 11-pt Reconfirmation Dose Response (96hr): IC50
[11] = read-out: P. falciparum Sybr Green I ABS 11-pt Reconfirmation Dose Response (96hr): Maximum inhibition (%)
[12] = DD2, read-out: P. falciparum Luciferase ABS 11-pt Reconfirmation Dose Response (48hr): IC50, 11-pt dose response, 48hr
[13] = DD2, 8-pt dose response, 96hr, read-out: P. falciparum Luciferase ABS 8-pt Reconfirmation Dose Response (96hr): IC50
[14] = DD2, 8-pt dose response, 96hr, read-out: P. falciparum Luciferase ABS 8-pt Reconfirmation Dose Response (96hr): Maximum inhibition (%)
[15] = DD2, 11-pt dose response, 48hr, read-out: P. falciparum Luciferase ABS 11-pt Reconfirmation Dose Response (48hr): Maximum inhibition (%)
[16] = DD2, 11-pt dose response, 96hr, read-out: P. falciparum Luciferase ABS 11-pt Reconfirmation Dose Response (96hr): IC50
[17] = DD2, 11-pt dose response, 96hr, read-out: P. falciparum Luciferase ABS 11-pt Reconfirmation Dose Response (96hr): Maximum inhibition (%)

SMILES: Cc1cccnc1CN1CC[C@H](Oc2cccc(F)c2)[C@@](C)(O)C1 [DDD01060871]
- IC50 (P. falciparum Dd2; [2]): 2.59 µM
- Emax (P. falciparum Dd2; [3]): 82.8%
- IC50 [1, 4]: 1.92 µM
- IC50 [1, 5]: 0.92 µM
- Emax [1, 6]: 90.5%
- Emax [1, 7]: 93.1%
- IC50 [1, 8]: 0.553 µM
- Emax [1, 9]: 100%

SMILES: CCc1ccc(CN(CCN(C)C)Cc2ccc(C)s2)nc1 [DDD01249772]
- IC50 (P. falciparum Dd2; [10]): 3 µM
- Emax (P. falciparum Dd2; [11]): 93.4%
- IC50 [1, 12]: 1.02 µM
- IC50 [1, 13]: 1.2 µM
- Emax [1, 14]: 90.5%
- Emax [1, 15]: 95.2%
- IC50 [1, 16]: 0.278 µM
- Emax [1, 17]: 101%

SMILES: COc1ccc(CCC(=O)NCCN2CCC(c3cccs3)CC2)cc1 [DDD01028015]
- IC50 (P. falciparum Dd2; [2]): 4.17 µM
- Emax (P. falciparum Dd2; [3]): 71.9%
- IC50 [1, 4]: 11.4 µM
- IC50 [1, 5]: 0.95 µM
- Emax [1, 6]: 85.7%
- Emax [1, 7]: 69.6%
- IC50 [1, 8]: 2.24 µM
- Emax [1, 9]: 86.6%

SMILES: Cc1cc(F)ccc1N1CCC(N2C[C@@H](CN(C)C)[C@@H](CO)C2)CC1 [DDD01253692]
- IC50 (P. falciparum Dd2; [2]): 2.03 µM
- Emax (P. falciparum Dd2; [3]): 90.3%
- IC50 [1, 4]: > 4.16 µM
- IC50 [1, 5]: 0.37 µM
- Emax [1, 6]: 94.9%
- Emax [1, 7]: 55.2%
- IC50 [1, 8]: 0.396 µM
- Emax [1, 9]: 100%

SMILES: COc1cc(CNCC(O)c2ccc(F)c(F)c2)cc2c1OCO2 (centres unmarked) [DDD00408586]
- IC50 (P. falciparum Dd2; [2]): 1.89 µM
- Emax (P. falciparum Dd2; [3]): 97.2%
- IC50 [1, 4]: 2.05 µM
- IC50 [1, 5]: 0.55 µM
- Emax [1, 6]: 90.7%
- Emax [1, 7]: 96.5%
- IC50 [1, 8]: 1.22 µM
- Emax [1, 9]: 99.5%

SMILES: CN(Cc1cc(F)cc2cccnc12)CC1CCN(CCO)CC1 [DDD01063806]
- IC50 (P. falciparum Dd2; [2]): 1.11 µM
- Emax (P. falciparum Dd2; [3]): 93.2%
- IC50 [1, 4]: 3.63 µM
- IC50 [1, 5]: 0.92 µM
- Emax [1, 6]: 93.1%
- Emax [1, 7]: 96.1%
- IC50 [1, 8]: 2.11 µM
- Emax [1, 9]: 100%

SMILES: c1ccc(Oc2nccc3occc23)c(CN2CCCCC2)c1 [DDD01249169]
- IC50 (P. falciparum Dd2; [2]): 7.19 µM
- Emax (P. falciparum Dd2; [3]): 73.8%
- IC50 [1, 4]: > 12.5 µM
- IC50 [1, 5]: 0.69 µM
- Emax [1, 6]: 87.1%
- Emax [1, 7]: 34.1%
- IC50 [1, 8]: 1.52 µM
- Emax [1, 9]: 78.9%

SMILES: CN(C)CCN(C)C(=O)Cn1cccc2cc(-c3ccc(F)cc3)nc1-2 [DDD01059044]
- IC50 (P. falciparum Dd2; [2]): 1.17 µM
- Emax (P. falciparum Dd2; [3]): 99.6%
- IC50 [1, 4]: 1.87 µM
- IC50 [1, 5]: 0.54 µM
- Emax [1, 6]: 95.7%
- Emax [1, 7]: 95.1%
- IC50 [1, 8]: 1.9 µM
- Emax [1, 9]: 98.3%

SMILES: Cc1ccc(CN2CCC3(CC2)CCN(Cc2ccoc2)CC3)cc1 [DDD01031590]
- IC50 (P. falciparum Dd2; [2]): 2.33 µM
- IC50 [1, 4]: 2.04 µM
- IC50 [1, 5]: 0.24 µM
- Emax [1, 6]: 94.3%
- Emax [1, 7]: 86.7%
- IC50 [1, 8]: 0.444 µM
- Emax [1, 9]: 99.4%

SMILES: CCN1CCC2(CC1)CC(NCc1cccc(C)n1)c1ccccc1O2 (centres unmarked) [DDD01034133]
- IC50 (P. falciparum Dd2; [2]): 10.3 µM
- Emax (P. falciparum Dd2; [3]): 79.5%
- IC50 [1, 4]: 11.7 µM
- IC50 [1, 5]: 0.72 µM
- Emax [1, 7]: 67.5%
- IC50 [1, 8]: 3.23 µM
- Emax [1, 9]: 88.1%

SMILES: O=C(Nc1nccs1)C1CCCN1Cc1ccccn1 (centres unmarked) [DDD01068868]
- IC50 (P. falciparum Dd2; [2]): 0.888 µM
- Emax (P. falciparum Dd2; [3]): 96.4%
- IC50 [1, 4]: 0.884 µM
- IC50 [1, 5]: 0.3 µM
- Emax [1, 7]: 91.2%
- IC50 [1, 8]: 0.303 µM
- Emax [1, 9]: 99.3%

SMILES: CN(C)[C@@H]1CCN(c2ncccn2)[C@H]1Cc1ccccc1 [DDD01036700]
- IC50 (P. falciparum Dd2; [2]): > 4.16 µM
- Emax (P. falciparum Dd2; [3]): 74.7%
- IC50 [1, 4]: > 12.5 µM
- IC50 [1, 5]: 0.85 µM
- Emax [1, 6]: 85.6%
- Emax [1, 7]: 47.6%
- IC50 [1, 8]: 2.4 µM
- Emax [1, 9]: 80.9%

SMILES: CN(C)c1nc2c(c(NCc3cc(O)ncn3)n1)CCCC2 [DDD01252975]
- IC50 (P. falciparum Dd2; [2]): 1.82 µM
- Emax (P. falciparum Dd2; [3]): 99.1%
- IC50 [1, 4]: 3.75 µM
- IC50 [1, 5]: 0.59 µM
- Emax [1, 6]: 94%
- Emax [1, 7]: 96%
- IC50 [1, 8]: 2.11 µM
- Emax [1, 9]: 99.7%

SMILES: CC(C)Nc1cc(-c2c[nH]nc2C2CCN(C(=O)C3CCC3)C2)ccn1 (centres unmarked) [DDD01057307]
- IC50 (P. falciparum Dd2; [2]): 7.49 µM
- Emax (P. falciparum Dd2; [3]): 72%
- IC50 [1, 4]: 4.05 µM
- IC50 [1, 5]: 0.23 µM
- Emax [1, 6]: 94.3%
- IC50 [1, 8]: 1.42 µM
- Emax [1, 9]: 95.8%

SMILES: CCn1ccnc1CN1CCCC(CO)(Cc2cccc(Cl)c2)C1 (centres unmarked) [DDD01258327]
- IC50 (P. falciparum Dd2; [10]): 3.02 µM
- Emax (P. falciparum Dd2; [11]): 58.2%
- IC50 [1, 12]: > 12.5 µM
- IC50 [1, 13]: 2.14 µM
- Emax [1, 14]: 81.2%
- Emax [1, 15]: 38.3%
- IC50 [1, 16]: 2.68 µM
- Emax [1, 17]: 82.9%
